Measurements taken from patent US10961219B2, “Derivatives and their use as selective inhibitors of caspase-2” (priority 2016, dated 2021).
Residues, ends and D or L forms follow the SMILES beside them. *: point of attachment. X1 = O=C(O)C[C@H](N*)C(=O)COc1c(F)cccc1F; Quinaldoyl = O=C(c1ccc2ccccc2n1)*

Columns and labels:
Caspase-2 = molecular target: T1, Caspase-2 (Homo sapiens, UniProt P42575); assay: Caspase-2 inhibition assay (in vitro), kinact/KI by continuous method; format: biochemical; conditions: for kinact/KI: human recombinant Caspase-2 0.1 nM, substrate Ac-VDVAD-AMC, 37° C., read-out: Inactivation constant kinact/KI Caspase-2 (converted); for times more efficient to inactivate Caspase-2 than to inactivate Caspase-3 (selectivity): ratio of kinact/KI Caspase-2 versus Caspase-3
T1 construct: the Caspase-2 and Caspase-3 are human recombinant active enzymes; purchased Enzo Life ALX-201-057-U100
T1 sequence (P42575 170-325 limits assumed): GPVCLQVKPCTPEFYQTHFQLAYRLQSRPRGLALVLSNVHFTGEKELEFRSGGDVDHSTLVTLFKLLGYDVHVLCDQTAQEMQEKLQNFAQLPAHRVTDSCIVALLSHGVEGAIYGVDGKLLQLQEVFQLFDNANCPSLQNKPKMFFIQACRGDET
T1 sequence (P42575 348-452 limits assumed): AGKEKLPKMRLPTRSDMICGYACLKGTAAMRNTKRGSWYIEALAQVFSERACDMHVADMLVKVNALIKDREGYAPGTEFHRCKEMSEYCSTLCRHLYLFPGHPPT
Source text: (§1) The efficiency of the compound 2 of the invention to inhibit Caspase-2 and Caspase-3 has been evaluated by using the below explained protocol.
(§2) The efficiency of the comparative compound Δ2Me-TRP601, that is an already known group II Caspase inhibitor (inhibitor of Caspase-2, Caspase-3 and Caspase-7), has been assessed by a similar protocol described in Chauvier et al., 2011 Cell Death Dis 2011, 2:e203.
In this example, the Caspase-2 and Caspase-3 are human recombinant active enzymes that are respectively provided by Enzo Life® (ALX-201-057-U100) and R&D Systems® (707-C3-010/CF).
Caspase-2 is used at a final concentration of 0.1 nM in a “Caspase-2 buffer” containing 20 mM HEPES (pH 7.4), 5 mM DTT, 2 mM EDTA, 0.1% CHAPS and 800 mM succinate. Caspase-3 is used at a final concentration of 0.5 nM in a “Caspase-3 buffer” containing 20 mM HEPES (pH 7.4), 0.1% CHAPS, 5 mM DTT, and 2 mM EDTA.
(§3) The peptide substrates used for the enzymatic activity measurements are Ac-DEVD-AMC and Ac-VDVAD-AMC commercialized by EnzoLife® (respectively referenced ALX-260-031-M005 and ALX-260-060-M005). They are fluorogenic due to the presence of their AMC (7-amino-4-methylcoumarin) end group. The releasing of AMC enables to follow the enzymatic activity in fluorescence unit RFU over time in a 96-wells microplate (COSTAR 3915).
The fluorescence values are measured at 37° C. with a spectrofluorometer with a microplate reader BMG FLUOstar OPTIMA. This apparatus is driven by the software Biolise® and is equipped with thermoelectric cooling device by Peltier effect. The mathematic analysis of the experimental data are done with the software Kaleidagraph@.
The inhibitory properties of the tested compounds are evaluated by the determination of the kinact/KI ratio regarding either Caspase-2 or Caspase-3 wherein: • kinact is the maximal inactivation rate constant, and • KI is the dissociation constant according to:
Said ratio is measured according to the continuous method (Allison R D. Curr Protoc Protein Sci. 2001 May; Chapter 3:Unit 3.5.; Chauvier et al., 2011 Cell Death Dis 2:e203; Tan et al., J Med Chem 2015, […]).
Briefly, Caspases activities were determined by monitoring the hydrolysis of fluorogenic substrates (λexc=355 nm, λem=460 nm) as a function of time, in the presence of untreated Caspases (control) or Caspases that had been incubated with a test compound, for 30 min minimum at 37° C. using a BMG Fluostar microplate reader (black 96-well microplates) and the initial velocity (V0) was determined from the linear portion of the progress curve.
Substrates and compounds were previously dissolved in DMSO at 10 mM, with the final solvent concentration kept at lower 4% (v/v). V0, relative velocities, KM and IC50 were determined from experimental datas using Mars datas Analysis 2.0 and Kaleidagraph softwares.
Inhibitor binding affinity (dissociation constant, KI) and first-order rate constant (k3) parameters were determined for Caspase-2 and Caspase-3 using the progress curve method. The ratio k3/KI was obtained by fitting the experimental data to the equations (F.U., fluorescence unit): […]
A continuous method of determination of the kinact/KI ratio was used for evaluating the inhibitory activity of the tested compounds against Caspase-2 and Caspase-3.
The reaction mixture is prepared by letting the enzyme and the buffer incubate at 37° C. […]
(§4) The activities of the enzyme are measured between 45 and 60 minutes. […]

Caspase-3 = molecular target: T2, Caspase-3 (Homo sapiens, UniProt P42574); assay: Caspase-3 inhibition assay (in vitro), kinact/KI by continuous method; format: biochemical; conditions: human recombinant Caspase-3 0.5 nM, substrate Ac-DEVD-AMC, 37° C.; read-out: Inactivation constant kinact/KI Caspase-3 (converted)
T2 construct: the Caspase-2 and Caspase-3 are human recombinant active enzymes; purchased R&D Systems 707-C3-010/CF
T2 sequence (P42574 29-175 limits assumed): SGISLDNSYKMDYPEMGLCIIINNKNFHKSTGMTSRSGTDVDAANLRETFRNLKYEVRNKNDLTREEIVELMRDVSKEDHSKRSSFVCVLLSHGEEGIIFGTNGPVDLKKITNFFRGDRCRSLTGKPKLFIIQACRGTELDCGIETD
T2 sequence (P42574 176-277 limits assumed): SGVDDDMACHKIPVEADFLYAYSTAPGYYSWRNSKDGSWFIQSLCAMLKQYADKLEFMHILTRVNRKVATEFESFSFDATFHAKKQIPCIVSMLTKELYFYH
Source text: as §1, §2
In this example, the Caspase-2 and Caspase-3 are human recombinant active enzymes that are respectively provided by Enzo Life® (ALX-201-057-U100) and R&D Systems® (707-C3-010/CF). […]
as §3, with “They are fluorogenic due to the presence of their AMC (7-amino-4-methylcoumarin) end group.” left out
The fluorescence values are measured at 37° C. with a spectrofluorometer with a microplate reader BMG FLUOstar OPTIMA. […]
The inhibitory properties of the tested compounds are evaluated by the determination of the kinact/KI ratio regarding either Caspase-2 or Caspase-3 wherein: • kinact is the maximal inactivation rate constant, and • KI is the dissociation constant according to: […]
as §4

HeLa cells = assay: Protection against cellular death induced by vincristine, propidium iodide flow cytometry; format: cell-based, human; conditions: compound at 3, 10, 30 and 60 μM added 1 hour before 20 nM vincristine, 48 hours
Description: In this example, the protective effect of the compound 2 of the invention against cellular death induced by vincristine (a vinca alkaloid) is tested using a well-known flow cytometry cell death assay based on propidium iodide staining.
To evaluate the protecting effect of compound 2, a Caspase-dependent cellular model is used.
Human HeLa cells are used in this model. HeLa cells (cervical cancer cell line) were obtained from American Type Cell Collection (ATCC), and were cultured in Dulbecco's Modified Eagle Medium (DMEM, High Glucose, GlutaMAX™, Pyruvate) (Gibco, Life technologies), supplemented with 10% FCS and antibiotics (Gibco, Life technologies).
Human HeLa cells are treated with Vincristine (Sigma Aldrich) solubilized in water at 5 mM. Vincristine works partly by binding to the tubulin protein, stopping the cell from separating its chromosomes during the metaphase; the cell then undergoes apoptosis.
Propidium iodide (PI) (Sigma Aldrich) is used to evaluate plasma membrane permeabilisation, a sign of cell death. […]
The cells are then analyzed by flow cytometry with an excitation of 561 nm.
Fluorescence-Activated Cell Sorting was performed using a FACSCalibur cytometer (Becton Dickinson, San Jose, Calif.). For each sample, data from 5,000 Cells were registered and analyzed with the CellQuest Pro™ software (Becton Dickinson). […]

Structure (SMILES)	efficiency to inhibit Caspase-2 (in words) (Caspase-2; compared with Δ2Me-TRP601)	kinact/KI (Caspase-2)	times more efficient to inactivate Caspase-2 than to inactivate Caspase-3 (selectivity) (Caspase-2)	kinact/KI (Caspase-3)	protection of cells against apoptotic death induced by vincristine (percentage of propidium iodide positive cells) (HeLa cells)
Cc1ccc2c(c1)CCN(C(=O)[C@@H](NC(=O)[C@H](CC(=O)O)NC(=O)[C@@H](NC(=O)c1ccc3ccccc3n1)C(C)C)C(C)C)[C@@H]2C(=O)N[C@@H](CC(=O)O)C(=O)COc1c(F)cccc1F [Compound 2, (S)-3-((S)-2-((S)-2-((S)-3-carboxy-2-((S)-3-methyl-2-(quinoline-2-carboxamido)butanamido)propanamido)-3-methylbutanoyl)-6-methyl-1,2,3,4-tetrahydroisoquinoline-1-carboxamido)-5-(2,6-difluorophenoxy)-4-oxopentanoic acid]	as efficient as Δ2Me-TRP601 to inhibit Caspase-2	1.76e+06 M⁻¹ s⁻¹	57 times	30500 M⁻¹ s⁻¹	protects the cells against apoptotic death induced by vincristine in a dose-dependent manner
CC(C)[C@H](NC(=O)c1ccc2ccccc2n1)C(=O)N[C@@H](CC(=O)O)C(=O)N[C@H](C(=O)N[C@@H](C)C(=O)N[C@@H](CC(=O)O)C(=O)COc1c(F)cccc1F)C(C)C [Δ2Me-TRP-601, reference compound] (Quinaldoyl-VDVA-X1)		1.57e+06 M⁻¹ s⁻¹	does not exhibit this selectivity	1.92e+06 M⁻¹ s⁻¹	
